Measured values: PMC12373499 (Nature Metabolism, 2025)
Where a SMILES comes first, the peptide text is derived from it. [ ]: non-standard residue; d: D form. The star is where a group is joined. X1 = CN1C(=CC=CC=CC2=[N+](CCCCCC(=O)NCCN3C(=O)CC(*)C3=O)c3ccccc3C2(C)C)C(C)(C)c2ccccc21; Aib = CC(C)(N)C(=O)O

Key:
Nluc–GLP1R (hGLP1R) = target: T1, Nluc–GLP1R (hGLP1R) (Homo sapiens, UniProt P43220); experiment: NanoBRET saturation binding assay, HEK293T cells
T1 construct: expressed in transfected cells; host or cells: HEK293T cells, transient expression
T1 sequence (P43220 24-463): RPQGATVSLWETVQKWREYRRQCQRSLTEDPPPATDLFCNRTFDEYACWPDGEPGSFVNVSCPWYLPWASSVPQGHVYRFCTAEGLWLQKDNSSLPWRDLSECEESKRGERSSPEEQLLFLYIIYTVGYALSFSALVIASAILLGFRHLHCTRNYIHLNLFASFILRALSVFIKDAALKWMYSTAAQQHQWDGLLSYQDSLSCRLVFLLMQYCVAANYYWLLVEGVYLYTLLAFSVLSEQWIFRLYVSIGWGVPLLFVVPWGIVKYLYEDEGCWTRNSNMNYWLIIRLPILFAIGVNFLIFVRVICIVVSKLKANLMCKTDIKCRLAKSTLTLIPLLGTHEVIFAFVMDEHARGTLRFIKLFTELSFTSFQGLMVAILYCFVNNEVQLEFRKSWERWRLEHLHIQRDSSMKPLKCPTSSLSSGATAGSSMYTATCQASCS
Experimental: HEK293T cells (RRID:CVCL_0063) were cultured in DMEM/F12 GlutaMAX (ThermoFisher), supplemented with 10% FBS and 1% antibiotic-antimycotic solution and cultured at 37 °C, 5% CO2. HEK293T cells were authenticated at source using STR profiling. […] Media was then removed and the cells were incubated in PBS supplemented with 0.1% BSA and 0.01% NanoGlo (Promega). […] Plates were read using a PheraSTAR microplate reader, using the NanoBRET filter module. BRET ratios (λacceptor/λdonor) were calculated, and saturation data fit using the ‘One Site – Specific Binding’ equation of GraphPad Prism 10. Competition binding was fit using the ‘One Site – Fit Ki’ equation.

SC-islets = experiment: Labelling of iPS cell-derived islet-like structures (SC-islets); assay type: cell-based, human; settings: n = 12 SC-islets from two differentiations
Experimental: For immunostaining, labelled islets were washed three times with PBS, then incubated with 2–4% formalin for 15 min at room temperature (16–25 °C). Islets were again washed three times with PBS, then incubated in permeabilizing blocking buffer for 1 h at room temperature before incubation with primary antibody overnight at 4 °C. The following day, islets were incubated with secondary antibody for 2 h at room temperature before mounting onto microscope slides with […] HardSet with DAPI or Everbrite Hardset. Primary and secondary antibodies are listed in Supplementary Table 5.
Human iPS cells (ALSTEM, iPS11) were maintained on iPS cell-qualified Matrigel (Corning, 354277) in mTeSR+ media (StemCell Technologies, 05826). ALSTEM iPS11 cells were authenticated at source by testing for expression of OCT4 and TRA-1-60, as well as alkaline phosphatase activity. Differentiation to islet-like structures (SC-islets) was carried out in a suspension-based, magnetic CELLSPIN bioreactor system ([…]). Differentiation media was changed daily by letting spheres settle by gravity for 3–10 min. Most of the supernatant was removed by aspiration; fresh media was added and bioreactors were placed back on the stirrer system. SC-islet differentiation was based on published protocols[35],[49]
Probe labelling was analysed using corrected total cell fluorescence, which is integrated density − (area of selected cell × mean fluorescence of background readings)[52],[53]. Colocalization was determined using Manders’ coefficient, which calculates the proportion of pixels in one channel that also show intensity from both channels. Full width at half maximum was used to analyse labelling patterns at the membrane versus cytoplasm. All analyses were performed in ImageJ (NIH), with brightness and contrast linearly adjusted across the entire image for presentation purposes and applied equally between all states under examination.

CC[C@H](C)[C@H](NC(=O)[C@H](CC(C)C)NC(=O)[C@H](Cc1c[nH]c2ccccc12)NC(=O)[C@H](CCC(N)=O)NC(=O)[C@@H](NC(=O)[C@H](Cc1ccccc1)NC(=O)[C@H](C)NC(=O)[C@H](CCCCN)NC(=O)[C@H](CCC(N)=O)NC(=O)[C@H](C)NC(=O)[C@@H](NC(=O)[C@H](CCCCN)NC(=O)[C@H](CC(=O)O)NC(=O)[C@H](CC(C)C)NC(=O)C(C)(C)NC(=O)[C@@H](NC(=O)[C@H](CO)NC(=O)[C@H](Cc1ccc(O)cc1)NC(=O)[C@H](CC(=O)O)NC(=O)[C@H](CO)NC(=O)[C@@H](NC(=O)[C@H](Cc1ccccc1)NC(=O)[C@@H](NC(=O)CNC(=O)[C@H](CCC(=O)O)NC(=O)C(C)(C)NC(=O)[C@@H](N)Cc1ccc(O)cc1)[C@@H](C)O)[C@@H](C)O)[C@@H](C)CC)[C@@H](C)CC)C(C)C)C(=O)N[C@@H](C)C(=O)NCC(=O)NCC(=O)N1CCC[C@H]1C(=O)N[C@@H](CO)C(=O)N[C@@H](CO)C(=O)NCC(=O)N[C@@H](C)C(=O)N1CCC[C@H]1C(=O)N1CCC[C@H]1C(=O)N1CCC[C@H]1C(=O)N[C@@H](CSC1CC(=O)N(CCNC(=O)CCCCC[N+]2=C(C=CC=CC=C3N(C)c4ccccc4C3(C)C)C(C)(C)c3ccccc32)C1=O)C(N)=O (some centres unmarked) [daLUXendin660] (H-Y[Aib]EGTFTSDYSI[Aib]LDKIAQKAFVQWLIAGGPSSGAPPPC(X1)-NH2)
Bmax best-fit (nM), hGLP1R (Nluc–GLP1R (hGLP1R); Nluc-tagged hGLP1R, NanoBRET saturation, n = 3 independent repeats): 0.0140 nM
Bmax, best-fit value, GLP1R (Nluc–GLP1R (hGLP1R); One site -- Specific binding, fit of all pooled points): 0.0163
corrected total cell fluorescence, α cells (SC-islets; GCG+ cells): 2.30 × 10^5 ± 1.59 × 10^5 AU
corrected total cell fluorescence, β cells (SC-islets; INS+ cells): 3.60 × 10^5 ± 2.58 × 10^5 AU
corrected total cell fluorescence, δ cells (SC-islets; SST+ cells): 2.16 × 10^5 ± 1.46 × 10^5 AU
